Data reported in patent US20200390729A1, “OPHTHALMIC TOPICAL COMPOSITION COMPRISING DOBESILIC ACID FOR TREATING DISEASES OF THE POSTERIOR SEGMENT OF THE EYE” (LABORATORIOS SALVAT, S.A., priority 2017, published 2020).
Like-named read-outs stand apart in the source and are kept apart here.

Assay: Ocular distribution of CDO in rats, single dose topical ocular vs. oral
Format: in vivo, Sprague Dawley (SD) rat
Details: rat
Procedure: In Sprague Dawley (SD) rat, weighing approximately 200 g, CDO was administered by topical ocular instillation (10 μl/eye) at 10 mg/ml (composition 2 of Example 1), at 100 mg/ml (composition 5 of Example 1) or by oral gavage at 50 mg/kg, at 200 mg/kg or at 750 mg/kg in aqueous solution (from compositions 1, 3 and 4, respectively, of Example 1). At 15, 60, 180 and 360 minutes post-administration, animals were euthanized and plasma and ocular tissues including sclera, cornea, retina, vitreous humour/lens and optic nerve were collected.
Bioanalysis of CDO was performed depending on the type of matrix. In the case of plasma, proteins were precipitated using methanol. In the case of tissues, samples were grinded in a Mini Bead Beater using zirconium beads and methanol/water (1:1) (v/v) as solvent. After centrifugation, samples were analyzed by UPLC-MS/MS.
Chromatographic separation was carried out using an Acquity CSH Fluoro Phenyl column (1.7 μm, 50×2.1 mm). Mobile phase consisted of a gradient using 0.1% formic acid in water and acetonitrile from 5% to 45% in 4.5 min at a flow rate of 0.6 ml/min.
With regard to the mass spectrometric detection, the electrospray ionization source worked to record negative ions. Multiple Reaction Monitoring (MRM) acquisition mode of the deprotonated molecular ions was performed. The transition monitored for CDO was m/z 189.0→80.1 with a cone voltage of 45 V and collision energy of 25 eV.

[1] = Sprague Dawley, cornea, topical eye 10 mg/ml (eye drop of 10 μl) = 0.1 mg, read-out: CDO concentrations Cornea
[2] = Sprague Dawley, cornea, topical eye 100 mg/ml (eye drop of 10 μl) = 1 mg, read-out: CDO concentrations Cornea
[3] = Sprague Dawley, optic nerve, oral 50 mg/Kg = 10 mg, read-out: CDO concentrations Optic nerve
[4] = Sprague Dawley, plasma, oral 200 mg/Kg = 40 mg, read-out: CDO concentrations Plasma
[5] = Sprague Dawley, plasma, oral 750 mg/Kg = 150 mg, read-out: CDO concentrations Plasma
[6] = Sprague Dawley, retina/choroid, topical eye 10 mg/ml (eye drop of 10 μl) = 0.1 mg, read-out: CDO concentrations Retina/Choroid
[7] = Sprague Dawley, retina, oral 200 mg/Kg = 40 mg, read-out: CDO concentrations Retina
[8] = Sprague Dawley, retina, oral 750 mg/Kg = 150 mg, read-out: CDO concentrations Retina
[9] = Sprague Dawley, retina, topical eye 100 mg/ml (eye drop of 10 μl) = 1 mg, read-out: CDO concentrations Retina
[10] = Sprague Dawley, sclera, topical eye 10 mg/ml (eye drop of 10 μl) = 0.1 mg, read-out: CDO concentrations Sclera
[11] = Sprague Dawley, sclera, topical eye 100 mg/ml (eye drop of 10 μl) = 1 mg, read-out: CDO concentrations Sclera
[12] = Sprague Dawley, vitreous humour/lens, topical eye 10 mg/ml (eye drop of 10 μl) = 0.1 mg, read-out: CDO concentrations Vitreous humour/lens

O=S(=O)(O)c1cc(O)ccc1O [CDO, Calcium dobesilate monohydrate]
concentration at 0.25 h [1]: 4610 ng/g
concentration at 1 h [1]: 1010 ng/g
concentration at 3 h [1]: 1990 ng/g
concentration at 0.25 h [2]: 58000 ng/g
concentration at 1 h [2]: 1720 ng/g
concentration at 3 h [2]: 3110 ng/g
concentration at 3 h [3]: 1890 ng/g
concentration at 6 h [3]: 410 ng/g
concentration at 0.25 h [4]: 3100 ng/g
concentration at 1 h [4]: 9040 ng/g
concentration at 3 h [4]: 11400 ng/g
concentration at 0.25 h [5]: 12600 ng/g
concentration at 1 h [5]: 28800 ng/g
concentration at 3 h [5]: 47600 ng/g
concentration at 0.25 h [6]: 1830 ng/g
concentration at 1 h [6]: 600 ng/g
concentration at 3 h [6]: 2150 ng/g
concentration at 0.25 h (Sprague Dawley, retina/choroid, topical eye 100 mg/ml (eye drop of 10 μl) = 1 mg, read-out: CDO concentrations Retina/Choroid): 17600 ng/g
concentration at 0.25 h [7]: 110 ng/g
concentration at 1 h [7]: 470 ng/g
concentration at 3 h [7]: 1040 ng/g
concentration at 0.25 h [8]: 670 ng/g
concentration at 1 h [8]: 1340 ng/g
concentration at 3 h [8]: 2420 ng/g
concentration at 0.25 h (Sprague Dawley, retina, topical eye 10 mg/ml (eye drop of 10 μl) = 0.1 mg, read-out: CDO concentrations Retina): 100 ng/g
concentration at 0.25 h [9]: 2030 ng/g
concentration at 1 h [9]: 640 ng/g
concentration at 3 h [9]: 250 ng/g
concentration at 6 h [9]: 130 ng/g
concentration at 0.25 h [10]: 170 ng/g
concentration at 1 h [10]: 330 ng/g
concentration at 3 h [10]: 770 ng/g
concentration at 0.25 h [11]: 3540 ng/g
concentration at 1 h [11]: 1140 ng/g
concentration at 3 h [11]: 220 ng/g
concentration at 0.25 h [12]: 1480 ng/g
concentration at 1 h [12]: 1680 ng/g
concentration at 3 h [12]: 190 ng/g
concentration at 0.25 h (Sprague-Dawley, optic nerve, topical eye 10 mg/ml (eye drop of 10 μl) = 0.1 mg, read-out: CDO concentrations Optic nerve): 5300 ng/g
